These results are taken from patent US20150335647A1, “Methods of Increasing Liver Proliferation” (priority 2009, published 2015).

The subject of one data set is hepatocyte proliferation. Nature of the data set: BrdU hepatocyte proliferation after 2/3 hepatectomy in mice treated with dorsomorphin. It is filed as in vivo. The settings on record: 8 week old mice, dorsomorphin 10 mg/kg vs saline, injected 24 and 12 h prior to, at, and 12, 24, 36 h after 2/3 hepatectomy; measured at 36 and 48 hours. Here is the method:
Animals were used to examine the role of various members of BMP signaling in restoration of liver mass after injury. Mice were subjected to two-thirds (“⅔”) or massive eighty percent (80%) hepatectomy. Surgery was performed on adult mice at least 8 weeks of age. For surgery, mice were anesthetized with 100 mg/kg ketamine and 10 mg/kg xylazine which were injected intraperitoneally. […] This was repeated until the subject was unconscious. Hair was removed from the surgical site using a clipper and the skin was disinfected using aseptic technique and betadyne. The scrubbed area was rinsed with 70% alcohol. To avoid hypothermia, the animal was not wetted more than necessary. An incision was made with a sterile scissors at the level of the xiphiod approximately one centimeter toward the umbilicus. The peritoneum was entered with a scissors and the tip of the xiphoid was excised. For ⅔ hepatectomy, the liver was exteriorized through the incision via gentle pressure on the flanks over an area previously prepped. A 4-0 silk ligature was placed around the exteriorized portion of the liver and tied. The anterior portion of the liver distal to the tie was then excised. A 4-0 proline was used to close the fascia and a 4-0 nylon was used to close the skin in a subcuticular fashion. […]

In data set [1] the test system is type I BMP receptors, namely, ALK2, ALK3, and ALK6. Particulars: cited from earlier work.
In a further data set the test system is BMP signaling. The settings on record: in vivo; cited from earlier work.
For data set [2], the system named is osteogenic differentiation induced by BMP4 or BMP6. Particulars: induced by BMP4 or BMP6 in vitro; compared with noggin; cited from earlier work.
In data set [3] the test system is BMP-mediated SMAD 1, 5 and 8 phosphorylation. The settings on record: cited from earlier work.
The next data set concerns MAPK p38 activation. Particulars: cited from earlier work.
A short description of data set [4]: Systemic toxicity of dorsomorphin administration for up to 60 days.
Protocol: To provide clinical relevance for the findings discussed above, eight week old mice were injected with an antagonist of BMP signaling. Dorsomorphin was injected for 48 hours prior to, during, and after ⅔ hepatectomy. Specifically, dorsomorphin was injected multiple times at 24 and 12 hours prior to hepatectomy, at the time of hepatectomy, and 12, 24, and 36 hours after hepatectomy.

As for `c1cc(-c2cnn3cc(-c4ccc(OCCN5CCCCC5)cc4)cnc23)ccn1` [Dorsomorphin], in the data set with hepatocyte proliferation, the “hepatocyte proliferation (BrdU incorporation)” value is listed as “marked enhancement of hepatocyte proliferation”. The “inhibition of type I BMP receptors ALK2, ALK3, and ALK6” value in data set [1] is listed as “selectively inhibiting”. The “dorsalization in zebrafish embryos” value with BMP signaling is on record as “effectively promote dorsalization”. The “inhibition of osteogenic differentiation” value in data set [2] is listed as “more potent than that seen with treatment with noggin”. Besides, in data set [3], the “BMP-mediated SMAD 1, 5 and 8 phosphorylation” value was “block”. In addition, the “MAPK p38 activation” value in the data set on MAPK p38 activation is recorded as “without affecting”. Besides, in data set [4], the “effect on bone marrow” value was “no effect”, the effect on growth result was “no effect”, the “effect on white blood cell count” value was “no effect” and the systemic toxicity entry was “did not produced systemic toxicity”.
